# Assay results reported in patent US8481732B2 (Incyte Corporation, priority 2009, dated 2013).
# Molecular target: T1, histamine H4 receptor (Homo sapiens, UniProt Q9H3N8)
# T1 construct: expressed in transfected cells; host or cells: HEK293SFM cells (membrane preparation)
# Assay: H4 Membrane Binding Assay (3H-Histamine displacement)
# Conditions: membranes of recombinant HEK293SFM cells, 10 nM 3H-Histamine, 1.5 hr at room temperature
# Procedure: Recombinant HEK293SFM cells expressing human H1, H2, H3, H4 or mouse H4 were harvested (Packard Filtermate Harvester) in ice-cold Tris-HCl, (50 mM, pH 7.5, Sigma) with protease inhibitors (Roche) and homogenized with a Polytron homogenizer. The homogenate was centrifuged for 5 minutes at 1000 g to remove nuclei and unbroken cells. The supernatant was centrifuged at 50000 g for 30 minutes, and the resulting pellet was re-suspended in ice-cold Tris-HCl (50 mM, pH 7.5). […] Nonspecific binding was determined by inclusion of 1000× unlabeled ligands. The bound radioactivity was separated by filtration through polyethyleneimine-treated GF/B filters (Perkin Elmer). The filters were washed eight times with ice-cold Tris-HCl (50 mM, pH 7.5), and radioactivity retained on the filters was measured by liquid scintillation counting. The binding data were evaluated with Prism.
row,SMILES,IC50 [nM]
1,"CC(Cc1cc2ccccc2o1)NC(=O)c1ccc2c(N3CCN(C)CC3)nc(N)nc2c1 (centres unmarked) [Example 141, 2-Amino-N-[2-(1-benzofuran-2-yl)-1-methylethyl]-4-(4-methylpiperazin-1-yl)quinazoline-7-carboxamide]",71
2,"CCOC(=O)c1cccnc1Oc1cccc(CNC(=O)c2ccc3c(N4CCN(C)CC4)nc(N)nc3c2)c1 [Example 184, Ethyl 2-{3-[({[2-amino-4-(4-methylpiperazin-1-yl)quinazolin-7-yl]carbonyl}amino)methyl]phenoxy}nicotinate]",43
3,"CN1CCN(c2nc(N)nc3cc(C(=O)N[C@@H](Cc4ccc(-c5ccccc5)cc4)C(=O)N(C)C)ccc23)CC1 [Example 139, 2-Amino-N-[(1S)-1-(biphenyl-4-ylmethyl)-2-(dimethylamino)-2-oxoethyl]-4-(4-methylpiperazin-1-yl)quinazoline-7-carboxamide]",25
4,"COC(=O)c1ccc(COc2cccc3c2CCN(C(=O)c2ccc4c(N5CCN(C)CC5)nc(N)nc4c2)C3)cc1 [Example 211, Methyl 4-((2-(2-amino-4-(4-methylpiperazin-1-yl)quinazoline-7-carbonyl)-1,2,3,4-tetrahydroisoquinolin-5-yloxy)methyl)benzoate]",63
5,"CN1CCN(c2nc(N)nc3cc(C(=O)NCc4ccc(Cl)c(Cl)c4)ccc23)CC1 [Example 131, 2-Amino-N-(3,4-dichlorobenzyl)-4-(4-methylpiperazin-1-yl)quinazoline-7-carboxamide]",17
6,"CCOC(=O)c1sc(Oc2cccc(CNC(=O)c3ccc4c(N5CCN(C)CC5)nc(N)nc4c3)c2)nc1C [Example 185, Ethyl 2-{3-[({[2-amino-4-(4-methylpiperazin-1-yl)quinazolin-7-yl]carbonyl}amino)methyl]phenoxy}-4-methyl-1,3-thiazole-5-carboxylate]",8.4
7,"CN1CCN(c2nc(N)nc3cc(C(=O)NCCCc4ccccc4)ccc23)CC1 [Example 38, 2-Amino-4-(4-methylpiperazin-1-yl)-N-(3-phenylpropyl)quinazoline-7-carboxamide]",106
8,"COc1ccccc1-c1ccc(C[C@H](NC(=O)c2ccc3c(N4CCN(C)CC4)nc(N)nc3c2)C(=O)N(C)C)cc1 [Example 152, 2-Amino-N-{(1S)-2-(dimethylamino)-1-[(2′-methoxybiphenyl-4-yl)methyl]-2-oxoethyl}-4-(4-methylpiperazin-1-yl)quinazoline-7-carboxamide]",10
9,"CN1CCN(c2nc(N)nc3cc(C(=O)NC(Cc4ccc5c(c4)OC(F)(F)O5)C(=O)N(C)C)ccc23)CC1 (centres unmarked) [Example 145, 2-Amino-N-[1-[(2,2-difluoro-1,3-benzodioxol-5-yl)methyl]-2-(dimethylamino)-2-oxoethyl]-4-(4-methylpiperazin-1-yl)quinazoline-7-carboxamide]",34
10,"CC(NC(=O)c1ccc2c(N3CCN(C)CC3)nc(N)nc2c1)c1ccc(Br)cc1 (centres unmarked) [Example 31, 2-Amino-N-[1-(4-bromophenyl)ethyl]-4-(4-methylpiperazin-1-yl)quinazoline-7-carboxamide]",355

# The remaining lines, values ahead:
row,IC50 [nM],SMILES
1,73,"CC(C)[C@H](C)NC(=O)N1CCc2ccc(-c3cc(N4CCN(C)CC4)nc(N)n3)cc2C1 [Example 97, 7-[2-Amino-6-(4-methylpiperazin-1-yl)pyrimidin-4-yl]-N-[(1S)-1,2-dimethylpropyl]-3,4-dihydroisoquinoline-2(1H)-carboxamide]"
2,107,"CCOC(=O)[C@@H]1CCCC[C@@H]1NC(=O)N1CCc2ccc(-c3cc(N4CCN(C)CC4)nc(N)n3)cc2C1 (relative stereo) [Example 53, Ethyl cis-2-({[7-[2-amino-6-(4-methylpiperazin-1-yl)pyrimidin-4-yl]-3,4-dihydroisoquinolin-2(1H)-yl]carbonyl}amino)cyclohexanecarboxylate]"
3,99,"CN1CCN(c2cc(-c3ccc4c(c3)CN(C(=O)Nc3nc(-c5ccc(Cl)cc5)cs3)CC4)nc(N)n2)CC1 [Example 48, 7-[2-Amino-6-(4-methylpiperazin-1-yl)pyrimidin-4-yl]-N-[4-(4-chlorophenyl)-1,3-thiazol-2-yl]-3,4-dihydroisoquinoline-2(1H)-carboxamide]"
4,9.2,"CN1CCN(c2nc(N)nc3cc(C(=O)NC4CCCc5ccc(OCc6cccc(C#N)c6)cc54)ccc23)CC1 (centres unmarked) [Example 202, 2-Amino-N-(7-(3-cyanobenzyloxy)-1,2,3,4-tetrahydronaphthalen-1-yl)-4-(4-methylpiperazin-1-yl)quinazoline-7-carboxamide]"
5,497,"CN1CCN(c2cc(-c3ccc4c(c3)CN(C(=O)NC(Cc3ccccc3)C(=O)N(C)C)CC4)nc(N)n2)CC1 (stereo in doubt) [Example 60, 7-[2-Amino-6-(4-methylpiperazin-1-yl)pyrimidin-4-yl]-N-[(1R)-1-benzyl-2-(dimethylamino)-2-oxoethyl]-3,4-dihydroisoquinoline-2(1H)-carboxamide]"
6,67,"CN1CCN(c2cc(-c3ccc4c(c3)CN(C(=O)NC3CCc5ccccc53)CC4)nc(N)n2)CC1 (centres unmarked) [Example 82, 7-[2-Amino-6-(4-methylpiperazin-1-yl)pyrimidin-4-yl]-N-(2,3-dihydro-1H-inden-1-yl)-3,4-dihydroisoquinoline-2(1H)-carboxamide]"
7,579,"CN1CCN(c2nc(N)nc3cc(C(=O)NCC4CC4)ccc23)CC1 [Example 25, 2-Amino-N-(cyclopropylmethyl)-4-(4-methylpiperazin-1-yl)quinazoline-7-carboxamide]"
8,23.4,"CN1CCN(c2cc(-c3ccc4c(c3)CN(C(=O)Nc3ccccc3)CC4)nc(N)n2)CC1 [Example 12, 7-[2-Amino-6-(4-methylpiperazin-1-yl)pyrimidin-4-yl]-N-phenyl-3,4-dihydroisoquinoline-2(1H)-carboxamide]"
9,77,"CN1CCN(c2cc(-c3cc4c(cc3F)CCN(C(=O)NC3CCCCC3)C4)nc(N)n2)CC1 [Example 76, 7-[2-Amino-6-(4-methylpiperazin-1-yl)pyrimidin-4-yl]-N-cyclohexyl-6-fluoro-3,4-dihydroisoquinoline-2(1H)-carboxamide]"
10,126,"Cc1ccc(CNC(=O)c2ccc3c(N4CCN(C)CC4)nc(N)nc3c2)cc1Cl [Example 36, 2-Amino-N-(3-chloro-4-methylbenzyl)-4-(4-methylpiperazin-1-yl)quinazoline-7-carboxamide]"
11,20.8,"CN1CCN(c2cc(-c3ccc4c(c3)CN(C(=O)NC3CCCC3)CC4)nc(N)n2)CC1 [Example 5, 7-[2-Amino-6-(4-methylpiperazin-1-yl)pyrimidin-4-yl]-N-cyclopentyl-3,4-dihydroisoquinoline-2(1H)-carboxamide]"
12,45,"CN1CCN(c2cc(-c3ccc4c(c3)CN(C(=O)Cc3ccc(N5CCCC5)nc3)CC4)nc(N)n2)CC1 [Example 128, 4-(4-Methylpiperazin-1-yl)-6-{2-[(6-pyrrolidin-1-ylpyridin-3-yl)acetyl]-1,2,3,4-tetrahydroisoquinolin-7-yl}pyrimidin-2-amine]"
13,232,"CN1CCN(c2cc(-c3ccc4c(c3)CN(C(=O)NCc3ccccc3)CC4)nc(N)n2)CC1 [Example 80, 7-[2-Amino-6-(4-methylpiperazin-1-yl)pyrimidin-4-yl]-N-benzyl-3,4-dihydroisoquinoline-2(1H)-carboxamide]"
